From the supplement of paper PMC4862054

Key:
Experiment in all cases: normalised response (% of control), CellTiter-Glo; higher = more viable cells (100 = DMSO, 0 = benzethonium chloride kill control)
Conditions in all cases: incubation time: 72 h
BT-474 = test system: BT-474
Summary of the method: (§1)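 CellTox Green fluorescence (485/520 nm) and, after 10 min at room temperature, CellTiter-Glo luminescence were read from breast cancer cell lines incubated 72 h in 384-well plates. Cells were seeded as 20 µl suspension onto compound at 5 concentrations in 10-fold steps over a 10,000-fold range chosen per compound. Each plate was normalised to 0.1 % DMSO (100) and a positive kill control (0). Values are normalised signals, one per concentration.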

BT-549 = test system: BT-549
Summary of the method: as §1

CAL-120 = test system: CAL-120
Summary of the method: as §1

HDQ-P1 = test system: HDQ-P1
Summary of the method: as §1

MDA-MB-231 = test system: MDA-MB-231
Summary of the method: as §1

MDA-MB-453 = test system: MDA-MB-453
Summary of the method: as §1

DU-4475 = test system: DU-4475
Summary of the method: as §1

Hs578T = test system: Hs578T
Summary of the method: as §1

HCC1937 = test system: HCC1937
Summary of the method: as §1

MFM-223 = test system: MFM-223
Summary of the method: as §1

SK-BR-3 = test system: SK-BR-3
Summary of the method: as §1

HCC1143 = test system: HCC1143
Summary of the method: as §1

CAL-51 = test system: CAL-51
Summary of the method: as §1

MCF-10A = test system: MCF-10A
Summary of the method: as §1

MDA-MB-436 = test system: MDA-MB-436
Summary of the method: as §1

MDA-MB-468 = test system: MDA-MB-468
Summary of the method: as §1

CAL-148 = test system: CAL-148
Summary of the method: as §1

HCC1599 = test system: HCC1599
Summary of the method: as §1

CAL-85-1 = test system: CAL-85-1
Summary of the method: as §1

| Compound | normalised response (BT-474) [%] | normalised response (BT-549) [%] | normalised response (CAL-120) [%] | normalised response (HDQ-P1) [%] | normalised response (MDA-MB-231) [%] | normalised response (MDA-MB-453) [%] | normalised response (DU-4475) [%] | normalised response (Hs578T) [%] | normalised response (HCC1937) [%] | normalised response (MFM-223) [%] | normalised response (SK-BR-3) [%] | normalised response (HCC1143) [%] | normalised response (CAL-51) [%] | normalised response (MCF-10A) [%] | normalised response (MDA-MB-436) [%] | normalised response (MDA-MB-468) [%] | normalised response (CAL-148) [%] | normalised response (HCC1599) [%] | normalised response (CAL-85-1) [%] |
| --- | --- | --- | --- | --- | --- | --- | --- | --- | --- | --- | --- | --- | --- | --- | --- | --- | --- | --- | --- |
| COc1nc(N)nc2c1ncn2[C@@H]1O[C@H](CO)[C@@H](O)[C@@H]1O [Nelarabine] (10 nM) | 87.5 | 99.5 | 90.8 | 89.9 | 97.4 | 88.1 | 98 | 96.5 | 102 | 88 | 70.6 | 96.2 | 77.6 | 88.7 | 97.7 | 90.5 | 81.3 | 88.6 | 96.4 |
| Cc1ccc(Nc2nccc(N(C)c3ccc4c(C)n(C)nc4c3)n2)cc1S(N)(=O)=O [Pazopanib] (1 nM) | 98.1 | 104 | 95.4 | 101 | 96.8 | 125 | 109 | 99.8 | 96.2 | 99.3 | 109 | 97.4 | 98.5 | 94.8 | 97.3 | 106 | 108 | 100 | 110 |
| CS(=O)(=O)N1CCN(Cc2cc3nc(-c4cccc5[nH]ncc45)nc(N4CCOCC4)c3s2)CC1 [Pictilisib] (10 nM) | 98.3 | 95.7 | 91.4 | 95.3 | 94.2 | 101 | 102 | 96.3 | 99.7 | 96.7 | 105 | 99.8 | 110 | 102 | 98.9 | 101 | 105 | 102 | 103 |
| O=C(NC[C@H](O)CO)c1ccncc1Nc1ccc(I)cc1F [Pimasertib] (1 nM) | 100 | 100 | 99.8 | 93.8 | 105 | 105 | 99.9 | 97.2 | 100 | 97.6 | 98.5 | 93.2 | 62.2 | 82.8 | 99.5 | 97.5 | 97.7 | 106 | 97.9 |
| O=C(CCBr)N1CCN(C(=O)CCBr)CC1 [Pipobroman] (1 nM) | 96.6 | 105 | 99.4 | 104 | 97.8 | 98.1 | 106 | 102 | 104 | 99.1 | 115 | 99.4 | 106 | 103 | 91.7 | 105 | 111 | 105 | 103 |
| O=C(CCBr)N1CCN(C(=O)CCBr)CC1 [Pipobroman] (10 nM) | 102 | 101 | 99.5 | 105 | 98.2 | 104 | 106 | 101 | 104 | 101 | 107 | 100 | 89.7 | 109 | 98.8 | 108 | 105 | 117 | 102 |
| c1cc(CN2CCCNCCNCCCNCC2)ccc1CN1CCCNCCNCCCNCC1 [Plerixafor] (1 nM) | 95.8 | 105 | 102 | 103 | 96.9 | 87.1 | 91 | 98.2 | 95.9 | 85.5 | 81.3 | 98.7 | 82.4 | 81.4 | 94.3 | 97.3 | 98.5 | 105 | 92.3 |
| C[C@]12C=CC(=O)C=C1CC[C@@H]1[C@@H]2[C@@H](O)C[C@@]2(C)[C@H]1CC[C@]2(O)C(=O)CO [Prednisolone] (1 nM) | 106 | 112 | 110 | 101 | 102 | 112 | 108 | 102 | 96.9 | 102 | 110 | 96.9 | 84.8 | 104 | 102 | 106 | 110 | 102 | 96.9 |
| C[C@]12C=CC(=O)C=C1CC[C@@H]1[C@@H]2[C@@H](O)C[C@@]2(C)[C@H]1CC[C@]2(O)C(=O)CO [Prednisolone] (10 nM) | 112 | 99.8 | 103 | 100 | 108 | 106 | 106 | 101 | 100 | 104 | 112 | 100 | 99.4 | 112 | 95.9 | 105 | 113 | 97.6 | 102 |
| Cn1cc(CNCC2CCN(c3ncc(C(=O)NO)cn3)CC2)c2ccccc21 [Quisinostat] (0.1 nM) | 104 | 99.8 | 103 | 100 | 106 | 109 | 103 | 96.5 | 99.6 | 104 | 108 | 105 | 84.2 | 109 | 101 | 109 | 109 | 92.9 | 107 |
| Cn1cc(CNCC2CCN(c3ncc(C(=O)NO)cn3)CC2)c2ccccc21 [Quisinostat] (1 nM) | 107 | 97.8 | 96.8 | 94.3 | 101 | 105 | 102 | 96.8 | 97.1 | 104 | 102 | 103 | 121 | 107 | 104 | 97 | 110 | 110 | 97.7 |
| CC(C)N(CCCNC(=O)Nc1ccc(C(C)(C)C)cc1)C[C@H]1O[C@@H](n2cc(Br)c3c(N)ncnc32)[C@H](O)[C@@H]1O [SGC0946] (1 nM) | 93.8 | 99.2 | 94.9 | 94.5 | 93.2 | 95.3 | 98.5 | 96 | 92.7 | 91.3 | 97.5 | 89.9 | 104 | 101 | 102 | 97.7 | 99.5 | 93.8 | 98.4 |
| CC(C)N(CCCNC(=O)Nc1ccc(C(C)(C)C)cc1)C[C@H]1O[C@@H](n2cc(Br)c3c(N)ncnc32)[C@H](O)[C@@H]1O [SGC0946] (10 nM) | 98.8 | 93.1 | 92.9 | 97.2 | 97.5 | 89.4 | 93.6 | 98.1 | 89.6 | 96.6 | 105 | 99.9 | 108 | 97.4 | 92.3 | 86.9 | 91.2 | 93.8 | 94 |
| CNC(=O)c1cc(Oc2ccc(NC(=O)Nc3ccc(Cl)c(C(F)(F)F)c3)cc2)ccn1 [Sorafenib] (0.1 nM) | 105 | 104 | 100 | 99.7 | 107 | 108 | 101 | 98.3 | 97.7 | 98.8 | 102 | 99.7 | 118 | 95.7 | 102 | 101 | 106 | 103 | 101 |
| CCN(CC)CCNC(=O)c1c(C)[nH]c(/C=C2\C(=O)Nc3ccc(F)cc32)c1C [Sunitinib] (0.1 nM) | 104 | 100 | 105 | 98.5 | 106 | 106 | 96.1 | 93.5 | 95.8 | 103 | 114 | 103 | 81.7 | 99.3 | 94.9 | 103 | 108 | 94.7 | 99.9 |
| CCN(CC)CCNC(=O)c1c(C)[nH]c(/C=C2\C(=O)Nc3ccc(F)cc32)c1C [Sunitinib] (1 nM) | 109 | 95.5 | 107 | 97.1 | 101 | 105 | 99.4 | 97.7 | 107 | 105 | 111 | 103 | 141 | 107 | 104 | 106 | 103 | 119 | 99.9 |
| CC[C@@]1(O)C(=O)OCc2c1cc1n(c2=O)Cc2cc3c(CN(C)C)c(O)ccc3nc2-1 [Topotecan] (1 nM) | 93.2 | 97.3 | 92.5 | 99.7 | 97.9 | 103 | 95.3 | 105 | 97 | 93.7 | 99.2 | 92.8 | 68.1 | 97.3 | 99.3 | 94.7 | 97.6 | 95 | 95.6 |
